Results as given in patent US20160137746A1, “METHODS FOR TREATING HIGH CARDIOVASCULAR RISK PATIENTS WITH HYPERCHOLESTEROLEMIA” (Sanofi Biotechnology, priority 2014, published 2016).
Several values for one entry are separate records, joined by “and”; a condition that tells them apart may be missing. Equal entries are not always repeated.

Test system: high cardiovascular risk patients with hypercholesterolemia
Experiment: ODYSSEY LONG TERM: lipid efficacy of alirocumab 150 mg Q2W vs placebo
Format: in vivo, human
Settings: for Percent change from baseline in calculated LDL-C at week 24 (%), LS means (SE) / Percent change from baseline in calculated LDL-C at week 24, LS mean difference (SE) vs placebo / Calculated LDL-C percent change from baseline, LS mean (SE): ITT population; for Percent change from baseline in calculated LDL-C at week 24 (%), LS means (SE) / Percent change from baseline in calculated LDL-C at week 24, LS mean difference (SE) vs placebo: 150 Q2W; for Calculated LDL-C percent change from baseline, LS mean (SE): MMRM, alirocumab 150 Q2W
Description: Patients were stratified according to heFH population, prior history of MI or ischemic stroke, statin treatment and geographic region. Patients at high cardiovascular risk were defined as 1) having heFH (who may or may not have CHD/CHD risk equivalents) or 2) no prior diagnosis of heFH but having hypercholesterolemia together with established CHD or CHD risk equivalents.
Primary analyses of efficacy endpoints were conducted using an ITT approach (based on the ITT population defined above), including all lipid data, regardless of whether the patient was continuing therapy or not. This corresponds to ITT estimands, defined for primary and key secondary endpoints. In addition, analyses were also conducted using an on-treatment approach (based on the mITT population defined above), including lipid data collected during the efficacy treatment period. This corresponds to on-treatment estimands of key secondary endpoints.
With regards to the primary efficacy analysis (ITT approach), the percent change in calculated LDL-C from baseline to Week 24 was analyzed using a mixed-effect model with repeated measures (MMRM) approach. All post-baseline data available from Week 4 to Week 52 analysis windows were used and missing data were accounted for by the MMRM. […] This model provided baseline adjusted least-squares means (LSmeans) estimates at Week 24 for both treatment groups with their corresponding SEs and 95% confidence intervals.
Continuous secondary variables anticipated to have a normal distribution (i.e., lipids other than TGs and Lp(a)) were analyzed using the same MMRM model as for the primary endpoint. […] Combined estimate for mean in both treatment groups, as well as the differences of these estimates, with their corresponding SEs, 95% Cls and p-value were provided (through SAS MIANALYZE procedure).
Binary secondary efficacy endpoints were analyzed using multiple imputation approach for handling of missing values followed by stratified logistic regression with treatment group as main effect and corresponding baseline value(s) as covariate, stratified by randomization factors (as per IVRS). Combined estimates of odds ratio versus placebo, 95% CI, and p-value were provided (through SAS MIANALYZE procedure).

[1] = On-treatment analysis, 150 Q2W (N = 1523)
[2] = On-treatment analysis, 150 Q2W (N = 1523), combined estimate for adjusted mean (SE)
[3] = Pattern Mixture Model sensitivity analysis, 150 Q2W (N = 1523)
[4] = Week 24, free PCSK9 levels at or above the median
[5] = Week 24, free PCSK9 levels below the median

“Alirocumab: human anti-PCSK9 antibody; HCVR SEQ ID NO:1, LCVR SEQ ID NO:6; CDRs SEQ ID NOs 2/3/4/7/8/10” was tested. Which “Percent change from baseline in calculated LDL-C at week 24 (%), LS means (SE)” value (HeFH population (271 patients)) did it give?
Its value is −56.3 (1.9) %.

What about the “Percent change from baseline in calculated LDL-C at week 24, LS mean difference (SE) vs placebo” value (HeFH population) of the same substance?
Its value is −63.2 (2.9) %.

And the “Calculated LDL-C percent change, LS mean difference vs placebo” value (ITT, Week 24)?
The value was −61.9%.

And the “Calculated LDL-C, LS mean percent change from baseline” value (ITT, Week 24)?
Its value is −61.0%.

And the “Measured LDL-C, LS mean percent change from baseline” value (ITT, Week 24)?
Its value is −61.3%.

What about the “Very high CV risk or high CV risk patients who reached calculated LDL-C <70 mg/dL or <100 mg/dL, respectively” value (ITT, Week 24) of the same substance?
The value was 80.7%.

And the “Proportion of patients reaching calculated LDL-C <70 mg/dL” value (ITT, Week 24, listed as alirocumab)?
The value was 79.3% and 79%.

What about the “Percent change from baseline in calculated LDL-C at week 24 (%), LS means (SE)” value (Non-HeFH population (1259 patients)) of the same substance?
The value was −62.1 (0.8) %.

What about the “Percent change from baseline in calculated LDL-C at week 24, LS mean difference (SE) vs placebo” value (Non-HeFH population) of the same substance?
The value was −61.5 (1.4) %.

And the “Apo A1, LS mean (SE) change from baseline to Week 24 (%)” value [1]?
Its value is 4.2 (0.4) %.

And the “Apo A1, LS mean difference (SE) vs placebo, percent change from baseline at Week 24” value [1]?
The value was 2.9 (0.7) %.

And the “Apo B, LS mean (SE) change from baseline to Week 24 (%)” value [1]?
The value was −54.3 (0.7) %.

What about the “Apo B, LS mean difference (SE) vs placebo, percent change from baseline at Week 24” value [1] of the same substance?
The value was −55.5 (1.2) %.

What about the “Calculated LDL-C, LS mean (SE) change from baseline to Week 24 (%)” value [1] of the same substance?
Its value is −62.8 (0.7) %.

What about the “Calculated LDL-C, LS mean difference (SE) vs placebo, percent change from baseline at Week 24” value [1] of the same substance?
The value was −63.5 (1.2) %.

And the “HDL-C, LS mean (SE) change from baseline to Week 24 (%)” value [1]?
The value was 4.2 (0.4) %.

And the “HDL-C, LS mean difference (SE) vs placebo, percent change from baseline at Week 24” value [1]?
The value was 4.9 (0.7) %.

What about the “Non-HDL-C, LS mean (SE) change from baseline to Week 24 (%)” value [1] of the same substance?
The value was −53.1 (0.6) %.

What about the “Non-HDL-C, LS mean difference (SE) vs placebo, percent change from baseline at Week 24” value [1] of the same substance?
Its value is −53.7 (1.0) %.

And the “Total cholesterol, LS mean (SE) change from baseline to Week 24 (%)” value [1]?
The value was −38.8 (0.5) %.

What about the “Total cholesterol, LS mean difference (SE) vs placebo, percent change from baseline at Week 24” value [1] of the same substance?
The value was −38.4 (0.8) %.

And the “Lipoprotein (a), LS mean difference (SE) vs placebo, percent change from baseline at Week 24” value [2]?
The value was −26.3 (1.3) %.

And the “Lipoprotein (a), change from baseline to Week 24 (%)” value [2]?
Its value is −30.2 (0.7) %.

What about the “Triglycerides, LS mean difference (SE) vs placebo, percent change from baseline at Week 24” value [2] of the same substance?
The value was −17.2 (1.4) %.

And the “Triglycerides, change from baseline to Week 24 (%)” value [2]?
The value was −15.8 (0.8) %.

What about the “Calculated LDL-C percent change, LS mean difference vs placebo” value (On-treatment, Week 24) of the same substance?
The value was −63.5%.

What about the “Proportion of patients reaching calculated LDL-C <70 mg/dL” value (On-treatment, Week 24) of the same substance?
Its value is 81.2%.

What about the “Very high CV risk or high CV risk patients who reached calculated LDL-C <70 mg/dL or <100 mg/dL, respectively” value (On-treatment, Week 24) of the same substance?
The value was 82.8%.

And the “Calculated LDL-C, LS mean (SE) change from baseline to Week 24 (%)” value [3]?
The value was −57.8 (0.8) %.

What about the “Calculated LDL-C, LS mean difference (SE) vs placebo, percent change from baseline at Week 24” value [3] of the same substance?
The value was −58.5 (1.3) %.

And the “Calculated LDL-C percent change from baseline, LS mean (SE)” value (from here on “Calculated LDL-C percent change … (SE)”) (Week 4)?
The value was −64.8%.

And the “Calculated LDL-C percent change … (SE)” value (Week 8)?
Its value is −65.8%.

What about the “Apo-B - Percent change from baseline to Week 12, LS mean difference vs. placebo” value (Week 12, ITT) of the same substance?
Its value is “placebo of −56%”.

And the “Apolipoprotein A1 - Percent change from baseline to Week 12, LS mean difference vs. placebo” value (Week 12, ITT)?
Its value is “placebo of 4%”.

And the “Calculated LDL-C - Percent change from baseline to Week 12, LS mean difference vs. placebo” value (Week 12, ITT)?
The value was “placebo of −64.8%”.

And the “Fasting TGs - Percent change from baseline to Week 12, combined estimate for adjusted mean difference vs. placebo” value (Week 12, ITT)?
The value was “vs. placebo of −17.9%”.

What about the “HDL-C - Percent change from baseline to Week 12, LS mean difference vs. placebo” value (Week 12, ITT) of the same substance?
The value was “placebo of 5.6%”.

What about the “Lp(a) - Percent change from baseline to Week 12, combined estimate for adjusted mean difference vs. placebo” value (Week 12, ITT) of the same substance?
The value was “vs. placebo of −25.1%”.

What about the “Non-HDL-C - Percent change from baseline to Week 12, LS mean difference vs. placebo” value (Week 12, ITT) of the same substance?
The value was “placebo of −54.6%”.

And the “Total-C - Percent change from baseline to Week 12, LS mean difference vs. placebo” value (Week 12, ITT)?
Its value is “placebo of −39%”.

And the “Calculated LDL-C percent change … (SE)” value (Week 12)?
The value was −63.3%.

What about the “Calculated LDL-C - Percent change from baseline to Week 12, LS mean difference vs. placebo” value (Week 12, On-treatment) of the same substance?
Its value is “placebo of −65.5%”.

What about the “Calculated LDL-C percent change … (SE)” value (Week 16) of the same substance?
Its value is −64.5%.

What about the “Calculated LDL-C percent change, LS mean difference vs placebo” value [4] of the same substance?
The value was −66.0%.

What about the “Calculated LDL-C, LS mean percent change from baseline” value [4] of the same substance?
The value was −62.7%.

What about the “Calculated LDL-C percent change, LS mean difference vs placebo” value [5] of the same substance?
Its value is −58.0%.

And the “Calculated LDL-C, LS mean percent change from baseline” value [5]?
Its value is −59.4%.

What about the “Calculated LDL-C percent change, LS mean difference vs placebo” value (Week 24, men) of the same substance?
The value was −64.7%.

What about the “Calculated LDL-C, LS mean percent change from baseline” value (Week 24, men) of the same substance?
Its value is −65.5%.
